Values after ≈ are worked out from the molar mass of the structure shown. Read-outs that look alike come from different tables or passages of the source.
How the values were obtained:
Assay in all cases: in vitro antibacterial MIC, agar plate dilution
Type in all cases: cell-based
[1] = system: Staphylococcus epidermidis CMC 83-135; details: CMC83135, 18 hours, 35° C., read-out: MIC
How it was run: (§1)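 Minimal inhibitory concentrations came from agar plate dilution in Mueller-Hinton medium. Each organism was delivered at roughly 10^4 CFU by Steers replicator. Plates were read for visible growth after 18 hours at 35° C, values in mcg/ml.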

[2] = system: Escherichia coli CMC 84-11; details: Escherichia coli, CMC8411, 18 h, 35° C., read-out: MIC
How it was run: as §1

[3] = system: Staphylococcus aureus Smith; details: 35° C.
How it was run: as §1

[4] = system: Morganella morganii CMC 84-37; details: Morganella morganii, CMC8437, 18 h, 35° C., read-out: MIC
How it was run: as §1

[5] = system: Escherichia coli ATCC 25922; details: Escherichia coli, ATCC25922, 18 h, 35° C., read-out: MIC
How it was run: as §1

Klebsiella pneumoniae AD = details: Klebsiella pneumoniae, 18 h, 35° C., read-out: MIC
How it was run: as §1

[6] = system: Streptococcus faecalis ATTC 29212; details: Enterococcus faecalis, ATTC29212, 18 hours, 35° C., read-out: MIC
How it was run: as §1

[7] = system: Staphylococcus aureus VGH 84-45; details: Staphylococcus aureus, VGH8445, 18 h, 35° C., read-out: MIC
How it was run: as §1

[8] = system: Enterobacter cloacae K 84-10; details: Enterobacter cloacae, K8410, 18 h, 35° C., read-out: MIC
How it was run: as §1

[9] = system: Escherichia coli CMC 84-16; details: Escherichia coli, CMC8416, 18 h, 35° C., read-out: MIC
How it was run: as §1

[10] = system: Staphylococcus Spp saprophiticus VGH 84-50; details: 18 hours, 35° C., read-out: MIC
How it was run: as §1

[11] = system: Staphylococcus aureus CMC 83-128; details: CMC83128, 18 hours, 35° C., read-out: MIC
How it was run: as §1

[12] = system: Morganella morganii VGH 84-11; details: VGH8411, 18 hours, 35° C., read-out: MIC
How it was run: as §1

[13] = system: Enterobacter aerogenes VGH 84-36; details: Klebsiella aerogenes, VGH8436, 18 hours, 35° C., read-out: MIC
How it was run: as §1

[14] = system: Staphylococcus aureus CMC 83-127; details: Staphylococcus aureus, CMC83127, 18 h, 35° C., read-out: MIC
How it was run: as §1

[15] = system: Escherichia coli PRNT 311; details: PRNT311, 18 hours, 35° C., read-out: MIC
How it was run: as §1

[16] = system: Staphylococcus epidermidis IO 83-58; details: IO8358, 18 hours, 35° C., read-out: MIC
How it was run: as §1

[17] = system: Serratia marcescens K 84-18; details: Serratia marcescens, K8418, 18 h, 35° C., read-out: MIC
How it was run: as §1

[18] = system: Pseudomonas aeruginosa VGH 84-4; details: Pseudomonas aeruginosa, VGH844, 18 h, 35° C., read-out: MIC
How it was run: as §1

[19] = system: Serratia marcescens F 0-35; details: Serratia marcescens, F035, 18 h, 35° C., read-out: MIC
How it was run: as §1

[20] = system: Klebsiella pneumoniae MOR 84-4; details: Klebsiella pneumoniae, MOR844, 18 h, 35° C., read-out: MIC
How it was run: as §1

[21] = system: Acinetobacter calcoaceticus MOR 84-43; details: MOR8443, 18 hours, 35° C., read-out: MIC
How it was run: as §1

[22] = system: Streptococcus faecalis VGH 84-65; details: Enterococcus faecalis, VGH8465, 18 h, 35° C., read-out: MIC
How it was run: as §1

[23] = system: Proteus rettgeri CMC 84-41; details: Providencia rettgeri, CMC8441, 18 h, 35° C., read-out: MIC
How it was run: as §1

[24] = system: Enterobacter cloacae VGH 84-37; details: Enterobacter cloacae, VGH8437, 18 h, 35° C., read-out: MIC
How it was run: as §1

[25] = system: Pseudomonas aeruginosa LL-1244; details: Pseudomonas aeruginosa, LL1244, 18 h, 35° C., read-out: MIC
How it was run: as §1

Escherichia coli NAR 311 = details: NAR311, 18 hours, 35° C., read-out: MIC
How it was run: as §1

[26] = system: Staphylococcus epidermidis VGH 84-40; details: VGH8440, 18 hours, 35° C., read-out: MIC
How it was run: as §1

[27] = system: Staphylococcus aureus VGH 84-46; details: 35° C.
How it was run: as §1

[28] = system: Staphylococcus aureus ATTC 29213; details: Staphylococcus aureus, ATTC29213, 18 h, 35° C., read-out: MIC
How it was run: as §1

Structure (SMILES): CCn1cc(C(=O)O)c(=O)c2cc(F)c(N3CCNC(CF)C3)c(F)c21 (single isomer, unassigned; (-)) [Example 64, (-)-N-Ethy6,8-difluoro-7-[3-(fluoromethyl)-1-piperazinyl]-1,4-dihydro-4-oxo-3-quinolinecarboxylic acid]
- MIC [1]: 0.25 µg/mL (≈ 0.677 µM)
- MIC [2]: 0.03 µg/mL (≈ 0.0812 µM)
- MIC ([3]; 18 hours): 0.12 µg/mL (≈ 0.325 µM)
- MIC [4]: 0.06 µg/mL (≈ 0.162 µM)
- MIC [5]: 0.03 µg/mL (≈ 0.0812 µM)
- MIC (Klebsiella pneumoniae AD): 0.06 µg/mL (≈ 0.162 µM)
- MIC [6]: 4 µg/mL (≈ 10.8 µM)
- MIC [7]: 0.12 µg/mL (≈ 0.325 µM)
- MIC [8]: 0.06 µg/mL (≈ 0.162 µM)
- MIC [9]: 0.03 µg/mL (≈ 0.0812 µM)
- MIC [10]: 1 µg/mL (≈ 2.71 µM)
- MIC [11]: 0.25 µg/mL (≈ 0.677 µM)
- MIC [12]: 0.12 µg/mL (≈ 0.325 µM)
- MIC [13]: 0.12 µg/mL (≈ 0.325 µM)
- MIC [14]: 0.06 µg/mL (≈ 0.162 µM)
- MIC [15]: 0.06 µg/mL (≈ 0.162 µM)
- MIC [16]: 0.25 µg/mL (≈ 0.677 µM)
- MIC [17]: 0.25 µg/mL (≈ 0.677 µM)
- MIC [18]: 2 µg/mL (≈ 5.42 µM)
- MIC [19]: 0.5 µg/mL (≈ 1.35 µM)
- MIC [20]: 0.06 µg/mL (≈ 0.162 µM)
- MIC [21]: 0.5 µg/mL (≈ 1.35 µM)
- MIC [22]: 4 µg/mL (≈ 10.8 µM)
- MIC [23]: 0.25 µg/mL (≈ 0.677 µM)
- MIC [24]: 0.06 µg/mL (≈ 0.162 µM)
- MIC [25]: 8 µg/mL (≈ 21.7 µM)
- MIC (Escherichia coli NAR 311): 1 µg/mL (≈ 2.71 µM)
- MIC [26]: 0.25 µg/mL (≈ 0.677 µM)
- MIC ([27]; 18 hours): 0.12 µg/mL (≈ 0.325 µM)
- MIC [28]: 0.25 µg/mL (≈ 0.677 µM)

Structure (SMILES): CCn1cc(C(=O)O)c(=O)c2cc(F)c(N3CCNC(CF)C3)c(F)c21 (racemic) [Example 63, (racemic)-N-Ethyl-6,8-difluoro-7-[3-(fluoromethyl)-1-piperazinyl]-1,4-dihydro-4-oxo-3-quinolinecarboxylic acid]
- MIC [1]: 0.5 µg/mL (≈ 1.35 µM)
- MIC [2]: 0.06 µg/mL (≈ 0.162 µM)
- MIC ([3]; Staphylococcus aureus, 18 h, read-out: MIC): 0.25 µg/mL (≈ 0.677 µM)
- MIC [4]: 0.12 µg/mL (≈ 0.325 µM)
- MIC [5]: 0.06 µg/mL (≈ 0.162 µM)
- MIC (Klebsiella pneumoniae AD): 0.12 µg/mL (≈ 0.325 µM)
- MIC [6]: 4 µg/mL (≈ 10.8 µM)
- MIC [7]: 0.25 µg/mL (≈ 0.677 µM)
- MIC [8]: 0.12 µg/mL (≈ 0.325 µM)
- MIC [9]: 0.06 µg/mL (≈ 0.162 µM)
- MIC [10]: 0.06 µg/mL (≈ 0.162 µM)
- MIC [11]: 0.03 µg/mL (≈ 0.0812 µM)
- MIC [12]: 0.5 µg/mL (≈ 1.35 µM)
- MIC [13]: 0.25 µg/mL (≈ 0.677 µM)
- MIC [14]: 0.12 µg/mL (≈ 0.325 µM)
- MIC [15]: 0.12 µg/mL (≈ 0.325 µM)
- MIC [16]: 0.25 µg/mL (≈ 0.677 µM)
- MIC [17]: 0.06 µg/mL (≈ 0.162 µM)
- MIC [18]: 2 µg/mL (≈ 5.42 µM)
- MIC [19]: 0.5 µg/mL (≈ 1.35 µM)
- MIC [20]: 0.12 µg/mL (≈ 0.325 µM)
- MIC [21]: 0.5 µg/mL (≈ 1.35 µM)
- MIC [22]: 4 µg/mL (≈ 10.8 µM)
- MIC [23]: 0.5 µg/mL (≈ 1.35 µM)
- MIC [24]: 0.5 µg/mL (≈ 1.35 µM)
- MIC [25]: 8 µg/mL (≈ 21.7 µM)
- MIC (Escherichia coli NAR 311): 1 µg/mL (≈ 2.71 µM)
- MIC [26]: 0.25 µg/mL (≈ 0.677 µM)
- MIC ([27]; Staphylococcus aureus, VGH8446, 18 h, read-out: MIC): 0.25 µg/mL (≈ 0.677 µM)
- MIC [28]: 0.25 µg/mL (≈ 0.677 µM)
